Patent publication US20250235460A1, “COMBINATION THERAPY USING GLUCOSE-DEPENDENT INSULINOTROPIC POLYPEPTIDE RECEPTOR ANTAGONIST COMPOUNDS AND GLP-1 RECEPTOR AGONIST COMPOUNDS” (Pfizer Inc., priority 2024, published 2025)
Read-outs that look alike come from different tables or passages of the source.

Target: human GLP-1R (Homo sapiens, UniProt P43220, G168S)
Assay: CHO GLP-1R Clone H6 cAMP HTRF agonist assay (Assay 1, high receptor density)
Format: cell-based
Conditions: for EC50: CHO GLP-1R clone H6, cAMP HTRF, geometric mean; for Emax: arithmetic mean
From the text: In Table 5 and Table 6, assay data are presented to two (2) significant figures as the geometric mean (EC50s) and arithmetic mean (Emax) based on the number of replicates listed (Number). A blank cell means there was no data for that Example or the Emax was not calculated.

[1] = CHO GLP-1R clone H6, relative to saturating GLP-1 (1 μM), read-out: Assay 1 Emax (%)

Sequence of human GLP-1R (P43220 24-463 G168S): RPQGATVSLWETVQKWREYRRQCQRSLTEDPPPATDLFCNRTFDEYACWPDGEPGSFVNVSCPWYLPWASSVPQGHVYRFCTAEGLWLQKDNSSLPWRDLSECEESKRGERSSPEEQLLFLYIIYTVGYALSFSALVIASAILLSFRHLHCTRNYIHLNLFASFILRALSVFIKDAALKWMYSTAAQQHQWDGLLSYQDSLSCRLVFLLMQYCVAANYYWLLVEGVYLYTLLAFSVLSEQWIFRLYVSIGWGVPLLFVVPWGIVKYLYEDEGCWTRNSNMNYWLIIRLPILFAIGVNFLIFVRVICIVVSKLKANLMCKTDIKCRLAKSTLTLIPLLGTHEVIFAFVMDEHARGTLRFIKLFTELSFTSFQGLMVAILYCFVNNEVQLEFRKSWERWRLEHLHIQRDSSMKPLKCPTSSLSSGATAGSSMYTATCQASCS

Row | Structure (SMILES) | EC50 | Emax [1] | Emax (relative to saturating full agonist GLP-1 (1 μM), read-out: Assay 1 Emax)
1 | COCCn1c(CN2CCN(c3ccc(F)c(OCc4ccc(Cl)cc4F)n3)CC2C)nc2ccc(C(=O)O)cc21 (stereo in doubt) [Compound 174B, 2-{[(2S)-4-{6-[(4-chloro-2-fluorobenzyl)oxy]-5-fluoropyridin-2-yl}-2-methylpiperazin-1-yl]methyl}-1-(2-methoxyethyl)-1H-benzimidazole-6-carboxylic acid] | 870 nM |  | 
2 | CO[C@@H]1CCC[C@H]1n1c(CN2CCC(c3cccc(OCc4ccc(Cl)cc4F)n3)CC2)nc2ccc(C(=O)O)cc21 (stereo in doubt) [Compound 194B, 2-[(4-{6-[(4-chloro-2-fluorobenzyl)oxy]pyridin-2-yl}piperidin-1-yl)methyl]-1-[(1R,2R)-2-methoxycyclopentyl]-1H-benzimidazole-6-carboxylic acid] | 75 nM | 69% | 
3 | CN1CC[C@@H]1Cn1c(CN2CCC(c3cccc(OCc4ccc(Cl)cc4F)n3)CC2)nc2ccc(C(=O)O)cc21 (stereo in doubt) [Compound 275B, 2-[(4-{6-[(4-chloro-2-fluorobenzyl)oxy]pyridin-2-yl}piperidin-1-yl)methyl]-1-[(1-methylazetidin-2-yl)methyl]-1H-benzimidazole-6-carboxylic acid] | > 20000 nM |  | 
4 | COCCn1c(CN2CCC(c3cccc4c3OC(C)(c3ccc(C#N)cn3)O4)CC2)nc2ccc(C(=O)O)cc21 (stereo not drawn) [Compound 98B, ammonium 2-({4-[2-(5-cyanopyridin-2-yl)-2-methyl-1,3-benzodioxol-4-yl]piperidin-1-yl}methyl)-1-(2-methoxyethyl)-1H-benzimidazole-6-carboxylate, ENT-X2] |  |  | 89%
5 | N#Cc1ccc(COc2cccc(C3CCN(Cc4nc5ccc(C(=O)O)cc5n4CC4CCO4)CC3)n2)c(F)c1 (stereo not shown) [Compound 109B, 2-[(4-{6-[(4-cyano-2-fluorobenzyl)oxy]pyridin-2-yl}piperidin-1-yl)methyl]-1-[oxetan-2-ylmethyl]-1H-benzimidazole-6-carboxylic acid] |  | 83% | 
6 | O=C(O)c1ccc2nc(CN3CCC(c4cccc(OCc5ccc(F)cc5F)n4)CC3)n(C[C@@H]3CCO3)c2n1 [Compound 118B, 2-[(4-{6-[(2,4-difluorobenzyl)oxy]pyridin-2-yl}piperidin-1-yl)methyl]-3-[(2S)-oxetan-2-ylmethyl]-3H-imidazo[4,5-b] pyridine-5-carboxylic acid] | 750 nM | 76% | 
7 | O=C(O)c1ccc2nc(CN3CCN(c4cccc(OCc5ccc(Cl)cc5F)n4)CC3)n(C[C@@H]3CCO3)c2c1 [Compound 119B, 2-[(4-{6-[(4-chloro-2-fluorobenzyl)oxy]pyridin-2-yl}piperazin-1-yl)methyl]-1-[(2S)-oxetan-2-ylmethyl]-1H-benzimidazole-6-carboxylic acid] | 210 nM | 66% | 
8 | O=C(O)c1ccc2nc(CN3CCC(c4cccc(OCc5ccc(Cl)cc5F)n4)CC3)n(C[C@H]3CCOC3)c2c1 [Compound 121B, 2-[(4-{6-[(4-chloro-2-fluorobenzyl)oxy]pyridin-2-yl}piperidin-1-yl)methyl]-1-[(3R)-tetrahydrofuran-3-ylmethyl]-1H-benzimidazole-6-carboxylic acid] | > 20000 nM |  | 
9 | N#Cc1ccc(COc2cccc(C3CCN(Cc4nc5ccc(C(=O)O)cc5n4C[C@@H]4CCO4)CC3)n2)cc1 [Compound 130B, 2-[(4-{6-[(4-cyanobenzyl)oxy]pyridin-2-yl}piperidin-1-yl)methyl]-1-[(2S)-oxetan-2-ylmethyl]-1H-benzimidazole-6-carboxylic acid] | > 11000 nM | 84% | 
10 | C[C@H]1CN(c2cccc(OCc3ccc(Cl)cc3F)n2)CCN1Cc1nc2ccc(C(=O)O)cc2n1Cc1cnco1 [Compound 147B, 2-{[(2S)-4-{6-[(4-chloro-2-fluorobenzyl)oxy]pyridin-2-yl}-2-methylpiperazin-1-yl]methyl}-1-(1,3-oxazol-5-ylmethyl)-1H-benzimidazole-6-carboxylic acid] | 210 nM | 79% | 
11 | C[C@H]1CN(c2cccc(OCc3ccc(Cl)cc3F)n2)CCN1Cc1nc2ccc(C(=O)O)cc2n1Cc1ncco1 [Compound 148B, 2-{[(2S)-4-{6-[(4-chloro-2-fluorobenzyl)oxy]pyridin-2-yl}-2-methylpiperazin-1-yl]methyl}-1-(1,3-oxazol-2-ylmethyl)-1H-benzimidazole-6-carboxylic acid] | 340 nM | 74% | 
12 | CCn1cncc1Cn1c(CN2CCN(c3cccc(OCc4ccc(C#N)cc4F)n3)CC2)nc2ccc(C(=O)O)cc21 [Compound 152B, 2-[(4-{6-[(4-cyano-2-fluorobenzyl)oxy]pyridin-2-yl}piperazin-1-yl)methyl]-1-[(1-ethyl-1H-imidazol-5-yl)methyl]-1H-benzimidazole-6-carboxylic acid] | 370 nM | 75% | 
13 | COCCn1c(CN2CCC(c3cccc(OCc4ccc(C#N)cc4)n3)CC2)nc2ccc(C(=O)O)c(F)c21 [Compound 169B, 2-[(4-{6-[(4-cyanobenzyl)oxy]pyridin-2-yl}piperidin-1-yl)methyl]-7-fluoro-1-(2-methoxyethyl)-1H-benzimidazole-6-carboxylic acid] | 1200 nM | 78% | 
14 | COCCn1c(CN2CCN(c3cccc(OCc4ccc(C#N)cc4)n3)CC2)nc2ccc(C(=O)O)cc21 [Compound 171B, 2-[(4-{6-[(4-cyanobenzyl)oxy]pyridin-2-yl}piperazin-1-yl)methyl]-1-(2-methoxyethyl)-1H-benzimidazole-6-carboxylic acid] | 200 nM | 79% | 
15 | COCCn1c(CN2CCN(c3cccc(OCc4ccc(C#N)cc4)n3)C[C@@H]2C)nc2ccc(C(=O)O)cc21 [Compound 172B, 2-{[(2S)-4-{6-[(4-cyanobenzyl)oxy]pyridin-2-yl}-2-methylpiperazin-1-yl]methyl}-1-(2-methoxyethyl)-1H-benzimidazole-6-carboxylic acid] | 2900 nM |  | 
16 | COCCn1c(CN2CCN(c3cccc(OCc4ccc(C#N)cc4F)n3)C[C@@H]2C)nc2ccc(C(=O)O)cc21 [Compound 173B, 2-{[(2S)-4-{6-[(4-cyano-2-fluorobenzyl)oxy]pyridin-2-yl}-2-methylpiperazin-1-yl]methyl}-1-(2-methoxyethyl)-1H-benzimidazole-6-carboxylic acid] | 2700 nM | 85% | 
17 | COCCn1c(CN2CCC(c3cccc(OCc4ccc(Cl)cc4F)n3)CC2)nc2ccc(C(=O)O)cc21 [Compound 176B, 2-[(4-{6-[(4-chloro-2-fluorobenzyl)oxy]pyridin-2-yl}piperidin-1-yl)methyl]-1-(2-methoxyethyl)-1H-benzimidazole-6-carboxylic acid] | 2400 nM | 87% | 
18 | COC1(Cn2c(CN3CCC(c4cccc(OCc5ccc(Cl)cc5F)n4)CC3)nc3ccc(C(=O)O)cc32)CCC1 [Compound 177B, 2-[(4-{6-[(4-chloro-2-fluorobenzyl)oxy]pyridin-2-yl}piperidin-1-yl)methyl]-1-[(1-methoxycyclobutyl)methyl]-1H-benzimidazole-6-carboxylic acid] | 880 nM |  | 
19 | COCCn1c(CN2CCC(c3ccc(F)c(OCc4ccc(Cl)cc4F)n3)CC2)nc2ccc(C(=O)O)cc21 [Compound 178B, 2-[(4-{6-[(4-chloro-2-fluorobenzyl)oxy]-5-fluoropyridin-2-yl}piperidin-1-yl)methyl]-1-(2-methoxyethyl)-1H-benzimidazole-6-carboxylic acid] | 4500 nM | 48% | 
